pIC50: −log10 of the molar value.
Assays:
T84 cells = test: Short-circuit current (ISC, Cl- secretion) in T84 cells in Ussing chambers; type: cell-based, human; details: for increase in ISC on basolateral addition of the compound alone: NBMPR 10 μM, imatinib 100 μM, no extracellular adenosine added; for increase in ISC on basolateral addition of the compound alone / currents on apical addition of the TKI: erlotinib 20 μM, gefitinib 100 μM; for effect of antagonist on currents induced by imatinib and adenosine: 10 μM antagonist after 100 μM imatinib and 1 μM adenosine
Method: T84 cells were routinely grown in DMEM/F12 (1:1) cell culture media with 10% FBS, 1 mM sodium pyruvate, 1× penicillin/streptomycin and 10 mM HEPES. For experiments described in this report, T84 cells were grown on 12 mm snapwell inserts for 6-8 days with media changes every 2-3 days. […] Compounds were added in small aliquots to the basolateral or apical chamber and the secretory response was measured as an increase in short-circuit current (ISC) due to Cl^− secretion and was monitored as a function of time.

[1] = cited from earlier work
[2] = test system: adenine nucleobase transporters; details: read-out: IC50 for inhibition of adenine transport; 1 μM [3H]adenine, hRPTCs, sodium buffer pH 7.4, 2 minute incubation
Method: Human renal proximal tubule cells (hRPTCs) were seeded in 12-well plates at densities of 10^5 cells/well and grown for 7 days with medium changes every 3-4 days. On the day of experiments, growth medium was aspirated and cells were washed twice with 1.5 ml of 20 mM Tris-HCl buffer (pH 7.4) containing 150 mM NaCl, 1.2 mM MgCl2 and 1 mM CaCl2 (hereafter referred to as sodium buffer). […] At the end of 2 minute incubations, cells were washed twice with sodium buffer and intracellular accumulation of [^3H]adenine was determined by solubilizing cells with 5% Triton-X-100 and subsequent determination of radioactivity in a scintillation counter. Data are presented as percent of values obtained in the absence of a competitor (controls). Resulting concentration-effect curves were analyzed by nonlinear regression analysis using Graph Pad Prism software version 4.0 (Graph Pad Software Inc., San Diego, CA) to obtain IC50 values for the compounds.

[3] = patients treated with erlotinib; cited from earlier work

With `O=[N+]([O-])c1ccc(CSc2ncnc3c2ncn3[C@@H]2O[C@H](CO)[C@@H](O)[C@H]2O)cc1` [NBMPR, nitrobenzylmercaptopurine riboside] the “ISC on addition of NBMPR after adenosine” value (T84 cells; 10 μM NBMPR after 1 μM adenosine, basolateral, FIG. 4) was “much higher ISC”, the “induction of currents by NBMPR (retest)” value (T84 cells; 20 μM NBMPR basolateral, FIG. 7 panel B) was “Induction of currents” and the “increase in ISC on basolateral addition of the compound alone” value (“increase in ISC on basolateral addition” for short) (T84 cells; basolateral) was “steady increase in ISC with time”.

For `O=c1[nH]cc(F)c(=O)[nH]1` [5-FU, 5-fluorouracil], the half-life [1] is listed as 20 min.

In the case of `COc1cc2c(Nc3ccc(Br)cc3F)ncnc2cc1OCC1CCN(C)CC1` [vandetanib], the pIC50 [2] was ≤ 4.00.

In the case of `Cn1c(=O)c2[nH]c(-c3ccccc3)nc2n(C)c1=O` [8-PT, 8-phenyltheophylline], the “effect of antagonist on ISC induced by adenosine then NBMPR” value (T84 cells; 10 μM 8-PT after 1 μM adenosine and 10 μM NBMPR, basolateral, FIG. 4) was “ISC returned to baseline levels”, the “effect of antagonist on currents induced by erlotinib and adenosine” value (T84 cells; 10 μM 8-PT after 20 μM erlotinib and 1 μM adenosine, basolateral, FIG. 8) was “abolished” and the “effect of antagonist on currents induced by gefitinib and adenosine” value (T84 cells; 10 μM 8-PT after 100 μM gefitinib and 1 μM adenosine, basolateral, FIG. 9) was “abolished”. For the same compound, the “effect of antagonist on currents induced by apical erlotinib or gefitinib” value (T84 cells; 10 μM 8-PT apical, FIG. 12) was “abolished”, the “induction of ISC by adenosine after pretreatment with antagonist” value (T84 cells; 10 μM 8-PT basolateral prior to 1 μM adenosine basolateral, FIG. 7 panel C) was “no induction of ISC” and the “effect of antagonist on currents induced by imatinib and adenosine” value (T84 cells; basolateral, FIG. 10) was “abolished”. The “effect of antagonist on ISC induced by NBMPR then adenosine” value (T84 cells; 8-PT after 10 μM NBMPR and 1 μM adenosine, basolateral, FIG. 6) was “reversed the increase in ISC to baseline activity”.

For `CCN(CC)CCNC(=O)c1c(C)[nH]c(/C=C2\C(=O)Nc3ccc(F)cc32)c1C` [sunitinib], the pIC50 [2] was 4.30.

In the case of `COc1cc2ncnc(Nc3ccc(F)c(Cl)c3)c2cc1OCCCN1CCOCC1` [gefitinib], the “currents on apical addition of the TKI” value (T84 cells; FIG. 12) was “slow increase in currents” and the “increase in ISC on basolateral addition” value (T84 cells; basolateral) was “slow but steady increase in ISC similar to that of NBMPR”.

In the case of `Nc1ncnc2c1ncn2[C@@H]1O[C@H](CO)[C@@H](O)[C@H]1O` [adenosine], the “ISC on addition of adenosine after NBMPR” value (T84 cells; 1 μM adenosine after 10 μM NBMPR, basolateral, FIG. 6) was “substantial increase in ISC”, the “currents on addition of adenosine after erlotinib” value (T84 cells; 1 μM adenosine after 20 μM erlotinib, basolateral, FIG. 8) was “substantial induction of currents” and the “currents on addition of adenosine after gefitinib” value (T84 cells; 1 μM adenosine after 100 μM gefitinib, basolateral, FIG. 9) was “substantial induction of currents”. For the same compound, the “currents on addition of adenosine after imatinib” value (T84 cells; 1 μM adenosine after 100 μM imatinib, basolateral, FIG. 10) was “substantial induction of currents”, the “currents on addition of adenosine to apical and both sides” value (T84 cells; 1 μM adenosine, apical or both sides versus basolateral, FIG. 11) was “much higher currents than on the basolateral side alone” and the “ISC with increasing concentrations of adenosine” value (T84 cells; adenosine basolateral in 1 μM increments, FIG. 7 panel A) was “ISC increased”.

For `Cn1c(=O)c2[nH]cnc2n(C)c1=O` [theophylline], the “effect of antagonist on currents induced by imatinib and adenosine” value (T84 cells; basolateral, FIG. 10) was “abolished” and the “effect of antagonist on adenosine induced increase in ISC” value (T84 cells; 10 μM antagonist, adenosine alone, FIG. 5) was “blocked”.

For `C#Cc1cccc(Nc2ncnc3cc(OCCOC)c(OCCOC)cc23)c1` [erlotinib], the “patients who develop diarrhea” value [3] is given as 30%, the “currents on apical addition of the TKI” value (T84 cells; FIG. 12) is given as “slow increase in currents” and the “increase in ISC on basolateral addition” value (T84 cells; basolateral) is given as “increase in ISC similar to that of NBMPR”.

From patent publication US12576085B2, “Combination comprising an ATP analog and an adenosine receptor antagonist or a nucleobase/nucleoside analog for the treatment of cancer” (priority 2010, dated 2026)
